In the supplement of paper PMC10307832:

Tests used:
Assay in all cases: relative viability (nuclei count vs DMSO), 5 days (fraction); higher = more cells survive
Imatinib + Foretinib = compound: Cc1ccc(NC(=O)c2ccc(CN3CCN(C)CC3)cc2)cc1Nc1nccc(-c2cccnc2)n1 [Imatinib] + COc1cc2c(Oc3ccc(NC(=O)C4(C(=O)Nc5ccc(F)cc5)CC4)cc3F)ccnc2cc1OCCCN1CCOCC1 [Foretinib] (partner 0.25 µM)
Outline: (§1)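 Lung cancer cell lines in 1536-well plates got either a single drug or a fixed anchor-drug dose together with five library-drug doses (not always all listed) in √10 steps, by pin tool, on the day after seeding. Nuclei were counted after 5 days, and relative viability is the treated-to-vehicle ratio of nuclei counts. Values are medians of duplicate plates.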

Imatinib + Phenformin = compound: Cc1ccc(NC(=O)c2ccc(CN3CCN(C)CC3)cc2)cc1Nc1nccc(-c2cccnc2)n1 [Imatinib] + N=C(N)NC(=N)NCCc1ccccc1 [Phenformin] (partner 250 µM)
Outline: as §1

Imatinib + Dasatinib = compound: Cc1ccc(NC(=O)c2ccc(CN3CCN(C)CC3)cc2)cc1Nc1nccc(-c2cccnc2)n1 [Imatinib] + Cc1nc(Nc2ncc(C(=O)Nc3c(C)cccc3Cl)s2)cc(N2CCN(CCO)CC2)n1 [Dasatinib] (partner 0.075 µM)
Outline: as §1

Imatinib + Pemetrexed = compound: Cc1ccc(NC(=O)c2ccc(CN3CCN(C)CC3)cc2)cc1Nc1nccc(-c2cccnc2)n1 [Imatinib] + Nc1nc2[nH]cc(CCc3ccc(C(=O)N[C@@H](CCC(=O)O)C(=O)O)cc3)c2c(=O)[nH]1 [Pemetrexed] (partner 0.2 µM)
Outline: as §1

| Cell Line | relative viability (Imatinib + Foretinib; first compound 0.02 µM) | relative viability (Imatinib + Foretinib; first compound 0.2 µM) | relative viability (Imatinib + Foretinib; first compound 0.6325 µM) | relative viability (Imatinib + Foretinib; first compound 2 µM) | relative viability (Imatinib + Phenformin; first compound 0.02 µM) | relative viability (Imatinib + Phenformin; first compound 0.2 µM) | relative viability (Imatinib + Phenformin; first compound 0.6325 µM) | relative viability (Imatinib + Phenformin; first compound 2 µM) | relative viability (Imatinib + Dasatinib; first compound 0.02 µM) | relative viability (Imatinib + Dasatinib; first compound 0.2 µM) | relative viability (Imatinib + Dasatinib; first compound 0.6325 µM) | relative viability (Imatinib + Dasatinib; first compound 2 µM) | relative viability (Imatinib + Pemetrexed; first compound 0.02 µM) | relative viability (Imatinib + Pemetrexed; first compound 0.6325 µM) | relative viability (Imatinib + Pemetrexed; first compound 2 µM) | relative viability (Imatinib + Foretinib; first compound 0.06325 µM) | relative viability (Imatinib + Phenformin; first compound 0.06325 µM) | relative viability (Imatinib + Dasatinib; first compound 0.06325 µM) | relative viability (Imatinib + Pemetrexed; first compound 0.06325 µM) | relative viability (Imatinib + Pemetrexed; first compound 0.2 µM) |
| --- | --- | --- | --- | --- | --- | --- | --- | --- | --- | --- | --- | --- | --- | --- | --- | --- | --- | --- | --- | --- |
| PC-3 [JPC-3] | 1.12 | 1.09 | 1.05 | 0.942 | 0.474 | 0.485 | 0.454 | 0.414 | 1.1 | 0.955 | 0.931 | 0.778 | 1.28 | 1.16 | 1.07 |  |  |  |  |  |
| PC-14 | 0.934 | 1.08 | 0.934 | 0.983 | 0.626 | 0.586 | 0.374 | 0.656 | 0.221 | 0.2 | 0.196 | 0.239 | 0.143 | 0.131 | 0.137 | 0.84 | 0.802 | 0.201 | 0.16 | 0.135 |
| RERF-LC-KJ | 0.909 |  | 0.794 | 0.834 | 0.49 | 0.432 | 0.407 | 0.428 | 0.927 | 0.987 | 0.771 | 0.841 | 0.448 | 0.487 | 0.43 | 0.757 | 0.472 | 0.602 | 0.369 | 0.507 |
| SK-LU-1 | 0.978 | 0.892 | 0.73 | 0.869 | 0.56 | 0.499 | 0.472 | 0.475 | 0.16 | 0.162 | 0.181 | 0.186 | 1.04 | 1.03 | 1.04 | 0.888 | 0.499 | 0.212 | 1.2 | 1.1 |
| SK-MES-1 | 0.957 | 1.03 | 0.786 | 0.963 | 0.72 | 0.725 | 0.619 | 0.577 | 0.372 | 0.372 | 0.318 | 0.337 |  | 0.889 | 0.857 | 0.915 | 0.686 | 0.309 | 1.02 | 1.04 |
| SW 900 | 0.879 | 1.09 | 0.717 | 1.04 | 0.57 | 0.821 | 0.578 | 0.499 | 0.552 | 0.641 | 0.48 | 0.567 | 0.465 | 0.47 | 0.425 | 1.04 | 0.474 | 0.412 | 0.393 | 0.418 |
| SW 1573 | 1.04 | 1.03 | 0.893 | 0.908 | 0.325 | 0.361 | 0.352 | 0.335 | 0.525 | 0.604 | 0.517 | 0.531 | 0.898 | 0.86 | 0.811 | 0.469 | 0.365 | 0.314 | 0.354 |  |
| UMC-11 | 0.981 | 0.973 | 1.14 | 1.11 | 0.331 | 0.322 | 0.332 | 0.294 | 0.527 | 0.619 | 0.507 | 0.457 | 0.906 | 0.811 | 0.781 | 1.31 | 0.327 | 0.34 | 0.972 | 0.864 |
